Assay results published in patent US11964973B2 (priority 2019, dated 2024).

What follows are compounds tested on human venous whole blood, CD8 positive population (pERK) (assay: DGK human whole blood pERK assay). Details: Homo sapiens, CD8 positive, human whole blood pERK; read-out: DGK HWB.
Format: cell-based
Procedure: Assay 11: DGK Human Whole Blood pERK Assay
Human whole blood ERK phosphorylation assay was performed with human venous whole blood obtained from healthy donors (drawn with Heparin as anti-coagulant). […] Heparinized human whole blood was added to the compound plate at 9 μL per well and incubated for one hour at 37° C. in a humidified 95%, air/5% CO2 incubator. After one hour of compound incubation, 1 μL of human anti-CD3 antibody (in-house) in the presence of cross-linking antibody goat anti-mouse IgG (4 μg/mL) was added to the well at 1 μg/mL final concentration for stimulation of pathway and additionally incubated for 15 minutes at 37° C. […] Samples analyzed using the Intellicyt® iQue Screener PLUS. The pERK activation was quantitated by the percentage of pERK positive population within CD8 positive population.

In order of rising EC50:
1. CCO[C@H]1CN(c2cc(=O)n(C)c3ccc(C#N)nc23)CC[C@@H]1Oc1ccc(OC(C)C)cc1 [Example 347, 8-((3S,4S)-3-ethoxy-4-(4-isopropoxyphenoxy)piperidin-1-yl)-5-methyl-6-oxo-5,6-dihydro-1,5-naphthyridine-2-carbonitrile]  0.35 µM
2. CCO[C@H]1CN(c2cc(=O)n(C)c3ccc(C#N)nc23)CC[C@@H]1Oc1ccccc1 (relative stereo) [Example 341, trans-8-(3-Ethoxy-4-phenoxypiperidin-1-yl)-5-methyl-6-oxo-5,6-dihydro-1,5-naphthyridine-2-carbonitrile]  0.59 µM
3. CCO[C@H]1CN(c2cc(=O)n(C)c3ccc(C#N)nc23)CC[C@H]1Oc1cccc(C(F)(F)F)c1 (relative stereo) [Example 369, cis-8-(3-Ethoxy-4-(3-(trifluoromethyl)phenoxy)piperidin-1-yl)-5-methyl-6-oxo-5,6-dihydro-1,5-naphthyridine-2-carbonitrile]  0.62 µM
4. CC[C@@H]1CN(c2cc(=O)n(C)c3ccc(C#N)nc23)[C@H](C)C[C@@H]1Oc1cccc(C(F)(F)F)c1 [Example 309, 8-((2R,4S,5R)-5-ethyl-2-methyl-4-(3-(trifluoromethyl)phenoxy)piperidin-1-yl)-5-methyl-6-oxo-5,6-dihydro-1,5-naphthyridine-2-carbonitrile]  4 µM
5. C[C@H]1CN(c2cc(=O)n(C)c3ccc(C#N)nc23)[C@@H](C)C[C@H]1Oc1cccc(Cl)c1 [Example 313, 8-((2S,4R,5S)-4-(3-chlorophenoxy)-2,5-dimethylpiperidin-1-yl)-5-methyl-6-oxo-5,6-dihydro-1,5-naphthyridine-2-carbonitrile]  7.1 µM
6. CC[C@@H]1CN(c2cc(=O)n(C)c3ccc(C#N)nc23)[C@H](C)C[C@H]1Oc1cccc(C(F)(F)F)c1 [Example 310, 8-((2R,4R,5R)-5-ethyl-2-methyl-4-(3-(trifluoromethyl)phenoxy)piperidin-1-yl)-5-methyl-6-oxo-5,6-dihydro-1,5-naphthyridine-2-carbonitrile]  9.9 µM
7. CC1CN(c2c(C#N)c(=O)n(C)c3ccc(C#N)nc23)CCC1N(C)C1CCC(F)(F)CC1 (single isomer, unassigned) [Example 329]  13 µM

Same assay, conditions: Homo sapiens, CD8 positive, read-out: DGK HWB (human whole blood pERK), human whole blood, CD8 positive population, anti-CD3 stimulation; top concentration 20 μM

`Cn1c(=O)cc(N2CC[C@@H](Oc3cccc(C(F)(F)F)c3)[C@H](OCCN3CCOCC3)C2)c2nc(C#N)ccc21` [Example 391, 5-methyl-8-((3R,4R)-3-(2-morpholinoethoxy)-4-(3-(trifluoromethyl)phenoxy)piperidin-1-yl)-6-oxo-5,6-dihydro-1,5-naphthyridine-2-carbonitrile] gave an EC50 of 17 µM.

Same assay, conditions: Homo sapiens, CD8 positive, read-out: DGK HWB, human whole blood pERK

In order of rising EC50:
1. CC[C@@H]1CN(c2nc(=O)n(C)c3ccc(C#N)nc23)[C@@H](C)C[C@@H]1Oc1ccc(OC(C)C)cn1 [Example 307, 4-((2S,4S,5R)-5-ethyl-4-((5-isopropoxypyridin-2-yl)oxy)-2-methylpiperidin-1-yl)-1-methyl-2-oxo-1,2-dihydropyrido[3,2-d]pyrimidine-6-carbonitrile]  0.17 µM
2. CC[C@@H]1CN(c2nc(=O)n(C)c3ccc(C#N)nc23)[C@H](C)C[C@H]1Oc1ccc(OC(C)C)cn1 [Example 303, 4-((2R,4R,5R)-5-ethyl-4-((5-isopropoxypyridin-2-yl)oxy)-2-methylpiperidin-1-yl)-1-methyl-2-oxo-1,2-dihydropyrido[3,2-d]pyrimidine-6-carbonitrile]  0.38 µM
3. CCO[C@H]1CN(c2cc(=O)n(C)c3ccc(C#N)nc23)CC[C@@H]1Oc1ccc(C(F)(F)F)cn1 (relative stereo) [Example 367, trans-8-(3-Ethoxy-4-((5-(trifluoromethyl)pyridin-2-yl)oxy)piperidin-1-yl)-5-methyl-6-oxo-5,6-dihydro-1,5-naphthyridine-2-carbonitrile]  0.64 µM
4. CC[C@@H]1CN(c2cc(=O)n(C)c3ccc(C#N)nc23)[C@@H](C)C[C@@H]1Oc1ccc(OC(C)C)cn1 [Example 299, 8-((2S,4S,5R)-5-ethyl-4-((5-isopropoxypyridin-2-yl)oxy)-2-methylpiperidin-1-yl)-5-methyl-6-oxo-5,6-dihydro-1,5-naphthyridine-2-carbonitrile]  0.78 µM
5. CCO[C@H]1CN(c2cc(=O)n(C)c3ccc(C#N)nc23)CC[C@@H]1Oc1ccc(OC(C)C)nn1 [Example 375, 8-((3S,4S)-3-ethoxy-4-((6-isopropoxypyridazin-3-yl)oxy)piperidin-1-yl)-5-methyl-6-oxo-5,6-dihydro-1,5-naphthyridine-2-carbonitrile]  2.3 µM
6. CC[C@@H]1CN(c2nc(=O)n(C)c3ccc(C#N)nc23)[C@@H](C)C[C@H]1Oc1ccc(OC(C)C)cn1 [Example 301, 4-((2S,4R,5R)-5-ethyl-4-((5-isopropoxypyridin-2-yl)oxy)-2-methylpiperidin-1-yl)-1-methyl-2-oxo-1,2-dihydropyrido[3,2-d]pyrimidine-6-carbonitrile]  11 µM
7. CC1CN(c2c(C#N)c(=O)n(C)c3ccc(C#N)nc23)CCC1N(C)C(=O)c1ccc(C(F)(F)F)cc1 (single isomer, unassigned) [Example 292, N-(1-(3,6-dicyano-1-methyl-2-oxo-1,2-dihydro-1,5-naphthyridin-4-yl)-3-methylpiperidin-4-yl)-N-methyl-4-(trifluoromethyl)benzamide]  20 µM

Same assay, conditions: human whole blood pERK; read-out: DGK HWB

In order of rising EC50:
1. CCO[C@H]1CN(c2cc(=O)n(C)c3ccc(C#N)nc23)CC[C@@H]1Oc1cc(C(F)(F)F)ccn1 [Example 365, 8-((3S,4S)-3-ethoxy-4-((4-(trifluoromethyl)pyridin-2-yl)oxy)piperidin-1-yl)-5-methyl-6-oxo-5,6-dihydro-1,5-naphthyridine-2-carbonitrile]  0.6 µM
2. CCO[C@H]1CN(c2cc(=O)n(C)c3ccc(C#N)nc23)CC[C@@H]1Oc1cccc(C(F)(F)F)n1 (relative stereo) [Example 363, trans-8-(3-Ethoxy-4-((6-(trifluoromethyl)pyridin-2-yl)oxy)piperidin-1-yl)-5-methyl-6-oxo-5,6-dihydro-1,5-naphthyridine-2-carbonitrile]  1.1 µM
3. CCO[C@H]1CN(c2cc(=O)n(C)c3ccc(C#N)nc23)CC[C@@H]1Oc1nc2ccccc2s1 [Example 373]  1.6 µM
4. CCO[C@H]1CN(c2cc(=O)n(C)c3ccc(C#N)nc23)CC[C@H]1Oc1ccc(OC(C)C)cn1 (relative stereo) [Example 371, cis-8-(3-Ethoxy-4-((5-isopropoxypyridin-2-yl)oxy)piperidin-1-yl)-5-methyl-6-oxo-5,6-dihydro-1,5-naphthyridine-2-carbonitrile]  3.6 µM
5. CCO[C@H]1CN(c2cc(=O)n(C)c3ccc(C#N)nc23)CC[C@@H]1Oc1ccc(C(F)(F)F)cc1 [Example 344, 8-((3S,4S)-3-ethoxy-4-(4-(trifluoromethyl)phenoxy)piperidin-1-yl)-5-methyl-6-oxo-5,6-dihydro-1,5-naphthyridine-2-carbonitrile]  20 µM
6. CCO[C@H]1CN(c2cc(=O)n(C)c3ccc(C#N)nc23)CC[C@@H]1Oc1ccccc1C(F)(F)F [Example 346, 8-((3S,4S)-3-ethoxy-4-(2-(trifluoromethyl)phenoxy)piperidin-1-yl)-5-methyl-6-oxo-5,6-dihydro-1,5-naphthyridine-2-carbonitrile]  20 µM
7. CCO[C@H]1CN(c2cc(=O)n(C)c3ccc(C#N)nc23)CC[C@@H]1Oc1cccc(C(F)(F)F)n1 (relative stereo) [Example 364, trans-8-(3-Ethoxy-4-((6-(trifluoromethyl)pyridin-2-yl)oxy)piperidin-1-yl)-5-methyl-6-oxo-5,6-dihydro-1,5-naphthyridine-2-carbonitrile]  20 µM

Same assay, conditions: read-out: DGK HWB; human whole blood pERK

In order of falling EC50:
1. CCO[C@H]1CN(c2cc(=O)n(C)c3ccc(C#N)nc23)CC[C@@H]1Oc1ccnc(C(F)(F)F)c1 [Example 359, 8-((3S,4S)-3-ethoxy-4-((2-(trifluoromethyl)pyridin-4-yl)oxy)piperidin-1-yl)-5-methyl-6-oxo-5,6-dihydro-1,5-naphthyridine-2-carbonitrile]  20 µM
2. C[C@H]1CN(c2cc(=O)n(C)c3ccc(C#N)nc23)[C@@H](C)CC1N(C)Cc1ccc(F)cc1 (single isomer, unassigned) [Example 334]  20 µM
3. CC1CN(c2c(C#N)c(=O)n(C)c3ccc(C#N)nc23)CCC1N(C)C(=O)c1ccc(C(F)(F)F)cc1 (single isomer, unassigned) [Example 293, N-(1-(3,6-dicyano-1-methyl-2-oxo-1,2-dihydro-1,5-naphthyridin-4-yl)-3-methylpiperidin-4-yl)-N-methyl-4-(trifluoromethyl)benzamide]  20 µM
4. CCO[C@H]1CN(c2cc(=O)n(C)c3ccc(C#N)nc23)CC[C@@H]1Oc1ccc(Cl)c(F)c1 [Example 358, 8-((3S,4S)-4-(4-chloro-3-fluorophenoxy)-3-ethoxypiperidin-1-yl)-5-methyl-6-oxo-5,6-dihydro-1,5-naphthyridine-2-carbonitrile]  7 µM
5. C[C@@H]1CN(c2nc(=O)n(C)c3ccc(C#N)nc23)[C@H](C)CC1Oc1cccc(C(F)(F)F)c1 (stereo partly drawn) [Example 257, 4-((2R,5R)-2,5-dimethyl-4-(3-(trifluoromethyl)phenoxy)piperidin-1-yl)-1-methyl-2-oxo-1,2-dihydropyrido[3,2-d]pyrimidine-6-carbonitrile]  0.8 µM
6. CCO[C@H]1CN(c2cc(=O)n(C)c3ccc(C#N)nc23)CC[C@@H]1Oc1ccnc(C(F)(F)F)c1 [Example 360, 8-((3S,4S)-3-ethoxy-4-((2-(trifluoromethyl)pyridin-4-yl)oxy)piperidin-1-yl)-5-methyl-6-oxo-5,6-dihydro-1,5-naphthyridine-2-carbonitrile]  0.7 µM
